Source: patent US20090018146A1, “Combination Therapy with Triterpenoid Compounds and Proteasome Inhibitors” (Research Development Corporation, priority 2005, published 2009)

Tests used:
[1] = test system: HSF1; assay: Western blot of HSF1 in cytoplasmic and nuclear extracts of Jurkat cells; assay type: cell-based, human
Experimental: (§1) Jurkat T cells (2 μg/ml=1 μM), U-937 (4 μg/ml), MJ (5 μg/ml), and HH cells (2.5 μg/ml) were treated for 0-24 hours with the indicated concentrations of avicin D. PBLs from the patients or normal blood were treated with 5 μg/ml of avicin D for 24 hours.
(§2) At the end of treatments, cells were harvested, washed with sterile ice-cold PBS and cytoplasmic extracts (CE) were prepared by lysing the cells in CE buffer containing 10 mM Hepes-Cl pH 7.5, 10 mM KCl, 0.1 mM EDTA, 0.1 mM EGTA, 0.3% NP40, and a protease inhibitor cocktail (Sigma). After centrifugation and separating the supernatant (CE proteins), the pellet was resuspended in a buffer containing 20 mM Hepes-Cl, 400 mM NaCl, 1 mM EDTA, 1 mM EGTA, and protease inhibitor cocktail (Sigma). The nuclear protein extraction proceeded for 30 min. on ice followed by centrifugation at 14,000 rpm for 5 min at 4° C. The clear supernatant containing nuclear proteins (NE) was collected, glycerol (10%) was added, and proteins stored at −80° C. until use.
(§3) SDS-PAGE and immunoblot procedures were essentially performed as described (Sambrook, 1989). […] Protein bands were detected using the ECL chemiluminescence kit from Amersham as per the manufacturer's protocol.
(§4) Quantitation of proteins (western) and transcripts (RT-PCR) was performed using the NIH 1.61 image software.

[2] = test system: Hsp90α, Hsc70, and Hsp60 transcripts; assay: One-step RT-PCR of Hsp90α, Hsc70 and Hsp60 transcripts in Jurkat cells; assay type: cell-based, human
Experimental: Total RNA purified using Trizol method (Invitrogen) was subjected to DNAseI (RNAase free, Sigma Chemical Co.) treatment to remove any residual DNA, followed by heat inactivation and addition of 1 mM EDTA. Absence of genomic DNA was confirmed by performing PCR using Taq DNA polymerase. About 50-100 ng of purified total RNA was used in a one-step RT-PCR reaction kit from Invitrogen in a Techne Genius machine. The samples were separated on 0.8% agarose-TBE gels and viewed by staining with ethidium bromide.
as §4

[3] = test system: Hsp90 transcript; assay: Northern blot of Hsp90 transcript in Jurkat cells; assay type: cell-based, human
From the text: Total RNA from the control and avicin treated Jurkat T cells was made using Trizol (Invitrogen). Equal amounts of RNA were separated on form amide gels and transferred to nylon membranes (Hybond N+, Amersham) and UV cross-linked using UV Stratalinker (Stratagene). Staining the membranes with 0.03% methylene blue solution in 0.3% sodium acetate, pH 5.2, monitored equal loading. The DNA probes for Hsp70 and Hsp90 were purchased from StressGen as pUC plasmids and used according to the manufacturer's protocol. The DNA fragments were radiolabeled using a Nick Translation kit from Gibco BRL and [^32P] dCTP (Amersham). The membranes were exposed for autoradiography after hybridization using ExpressHyb (Clontech) solution at 58° C. for 1 hour and 5 washes, each of 20 minutes, with 5× SSC containing 0.1% SDS at 50° C.

[4] = test system: CHIP; assay: Western blot of CHIP in Jurkat cells; assay type: cell-based, human; settings: same conditions as E3α
Experimental: as §1, §2, §3

[5] = test system: caspase 9; assay: Western blot of caspase 9 cleavage in Jurkat cells; assay type: cell-based, human; settings: 2 hours of treatment
Experimental: as §1, §2, §3

[6] = biological target: T1, 20S proteasomal activity (Homo sapiens, UniProt Q99436); assay: 20S proteasomal assay in Jurkat cells; assay type: cell-based; settings: for decrease in the 20S proteasomal activity: avicin D 1 μM
T1 construct: Proteasomal extracts (PE) were prepared; endogenous in cells; host or cells: Jurkat T cells (proteasomal extracts)
T1 sequence (Q99436 44-277): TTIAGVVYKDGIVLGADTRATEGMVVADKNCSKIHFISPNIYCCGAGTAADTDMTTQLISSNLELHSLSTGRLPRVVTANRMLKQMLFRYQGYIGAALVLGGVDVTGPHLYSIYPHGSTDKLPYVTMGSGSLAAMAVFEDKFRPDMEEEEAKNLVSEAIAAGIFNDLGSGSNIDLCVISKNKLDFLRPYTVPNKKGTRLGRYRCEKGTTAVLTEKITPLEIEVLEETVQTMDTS
Experimental: Jurkat T cells were treated with 1 μM of avicin D for 0-4 hours. Proteasomal extracts (PE) were prepared as described previously (18) in a buffer containing 50 mM Hepes pH 8, 5 mM EGTA, 0.3% NP40, and 10% glycerol. The assay reaction contained 20 mM Tris-Cl pH7.2, 0.1 mM EDTA, 1 mM β-mercaptoethanol, 5 mM ATP, 20% glycerol, 0.02% SDS, and 0.04% NP40. About 10 μg of the PE proteins and BocLRR-AMC (0.1 mM), which allows measurement of the trypsin-like activity of proteasomes, was used as substrate. The reaction was carried out at 30° C. for 30 minutes and the fluorescence was read at 380 nm (excitation) and 460 nm (emission) in a Perkin Elmer HTS 7000 Plus, Bioassay Reader.
Statistical significance of differences observed in the proteasomal activity in avicin treated cells compared with the untreated cells was determined by using an unpaired Student t test. The minimum level of significance was a P<0.05.

[7] = test system: caspase 3; assay: Western blot of caspase 3 activation in Jurkat cells; assay type: cell-based, human; settings: 2-4 hours
Experimental: as §1, §2, §3

[8] = test system: XIAP; assay: Western blot of XIAP in leukemic/lymphoma cell-lines; assay type: cell-based, human; settings: Jurkat, U937, MJ-1, and HH cells, 24 hours post-treatment
Experimental: Human Jurkat T cell leukemia, monocytic U937 cells, and cutaneous T-cell lymphoma (CTCL) cell lines MJ (G11) and HH were obtained from American Type Culture Collection (Rockville, Md.) and grown in RPMI 1640 medium supplemented with 10% FBS and 2 mM glutamine.
as §1
as §2, with “The nuclear protein extraction proceeded for 30 min. on ice followed by centrifugation at 14,000 rpm for 5 min at 4° C. The clear supernatant containing nuclear proteins (NE) was collected, glycerol (10%) was added, and proteins stored at −80° C. until use.” left out
as §3, §4

[9] = test system: CTCL cells; assay: Apoptosis in PBL from Sezary syndrome patients; assay type: cell-based, human
Experimental: as §1

[10] = test system: Hsp70; assay: Western blot of Hsp70 in normal PBL; assay type: cell-based, human; settings: PBL from a normal blood sample, 5 μg/ml, 24 hours
Experimental: as §1, §2, §3

[11] = test system: PBL from a normal blood sample; assay: Apoptosis in normal PBL; assay type: cell-based, human
Experimental: as §1

[12] = test system: ubiquitin-protein conjugates; assay: Western blot of ubiquitin-protein conjugates in Jurkat cells; assay type: cell-based, human; settings: from around 2 hours
Experimental: as §1, §2, §3

Structure (SMILES): C=C[C@](C)(O)CC/C=C(\CO)C(=O)O[C@H]1[C@H](O)[C@@H](O)[C@H](O[C@@](C)(C=C)CC/C=C(\CO)C(=O)O[C@H]2C[C@]3(C(=O)O[C@@H]4O[C@H](CO)[C@@H](O)[C@H](O)[C@H]4O[C@@H]4O[C@@H](C)[C@H](O[C@@H]5O[C@@H](CO)[C@H](O)[C@H]5O)[C@@H](O[C@@H]5O[C@H](CO)[C@@H](O)[C@H](O)[C@H]5O)[C@H]4O)[C@H](O)C[C@]4(C)C(=CC[C@@H]5[C@@]6(C)CC[C@H](O[C@@H]7O[C@H](CO[C@@H]8O[C@H](C)[C@H](O)[C@H](O)[C@H]8O[C@@H]8OC[C@@H](O)[C@H](O)[C@H]8O)[C@@H](O)[C@H](O)[C@H]7NC(C)=O)C(C)(C)[C@@H]6CC[C@]54C)[C@@H]3CC2(C)C)O[C@@H]1C [avicin D]
- increase in the levels of nuclear HSF1 ([1]; 4 hours, nuclear extract, densitometric scanning): ~1.5 fold
- cytoplasmic content of HSF1 protein ([1]; cytoplasmic extract): No apparent change
- changes in the transcripts encoding Hsp90α, Hsc70, and Hsp60 (RT-PCR) [2]: marginal
- increase in Hsp90 transcript (Northern blot) [3]: ~2 fold
- levels of CHIP [4]: No significant change
- cleavage of caspase 9 [5]: increased cleavage
- decrease in the 20S proteasomal activity ([6]; 2 hours): 33%
- decrease in the 20S proteasomal activity ([6]; 4 hours): 41%
- decrease in proteasome activity ([6]; during 2-4 hours of treatment): 30-40%
- caspase 3 activation [7]: caspase 3 activation
- XIAP protein level [8]: significant decrease
- apoptosis [9]: caused apoptosis
- change in Hsp70 protein [10]: no significant change
- apoptosis [11]: resistant to apoptosis
- ubiquitin-protein conjugates in cell extracts [12]: protein conjugates observed
